Test results published in PubChem BioAssay (NCI).
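Following 48 hours of exposure in 96-well plates, responses at five concentrations were used to interpolate endpoints linearly. GI50 = concentration required for 50% inhibition of growth. TGI: concentration producing complete growth inhibition.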

How the values were obtained:
Test in all cases: NCI-60 cell line screen, 48 h
CCRF-CEM leukemia = test system: CCRF-CEM leukemia
SW-620 colon = test system: SW-620 colon
HL-60(TB) leukemia = test system: HL-60(TB) leukemia
EKVX NSCLC = test system: EKVX NSCLC
A549 NSCLC = test system: A549 NSCLC
T-47D breast = test system: T-47D breast
LOX IMVI melanoma = test system: LOX IMVI melanoma
NCI-H23 lung = test system: NCI-H23 lung
A498 renal = test system: A498 renal
NCI-H460 lung = test system: NCI-H460 lung
TK-10 renal = test system: TK-10 renal
SK-MEL-5 melanoma = test system: SK-MEL-5 melanoma
DU-145 prostate = test system: DU-145 prostate
SN12C renal = test system: SN12C renal
SF-539 CNS = test system: SF-539 CNS
MCF7 breast = test system: MCF7 breast
NCI-H226 lung = test system: NCI-H226 lung
M14 melanoma = test system: M14 melanoma
MOLT-4 leukemia = test system: MOLT-4 leukemia
SK-OV-3 ovarian = test system: SK-OV-3 ovarian
SK-MEL-2 melanoma = test system: SK-MEL-2 melanoma
UACC-257 melanoma = test system: UACC-257 melanoma
MDA-MB-435 = test system: MDA-MB-435
KM12 colon = test system: KM12 colon
MDA-MB-231 breast = test system: MDA-MB-231 breast
UO-31 renal = test system: UO-31 renal
ACHN renal = test system: ACHN renal
IGROV1 ovarian = test system: IGROV1 ovarian
NCI-H522 lung = test system: NCI-H522 lung
HCT-15 colon = test system: HCT-15 colon
MALME-3M melanoma = test system: MALME-3M melanoma
OVCAR-5 ovarian = test system: OVCAR-5 ovarian
HOP-92 NSCLC = test system: HOP-92 NSCLC
PC-3 prostate = test system: PC-3 prostate
RXF 393 renal = test system: RXF 393 renal
OVCAR-3 ovarian = test system: OVCAR-3 ovarian
HOP-62 NSCLC = test system: HOP-62 NSCLC
SNB-19 CNS = test system: SNB-19 CNS
HCT-116 colon = test system: HCT-116 colon
CAKI-1 renal = test system: CAKI-1 renal
RPMI-8226 leukemia = test system: RPMI-8226 leukemia
SF-295 CNS = test system: SF-295 CNS
U251 CNS = test system: U251 CNS
OVCAR-8 ovarian = test system: OVCAR-8 ovarian
786-0 renal = test system: 786-0 renal
SF-268 CNS = test system: SF-268 CNS
NCI/ADR-RES ovarian = test system: NCI/ADR-RES ovarian
COLO 205 colon = test system: COLO 205 colon
HS 578T breast = test system: HS 578T breast
UACC-62 melanoma = test system: UACC-62 melanoma
BT-549 breast = test system: BT-549 breast

`O=C(c1ccccc1)c1nc2ccc(C(F)(F)F)cc2nc1N1CCN(c2ccccc2)CC1` was tested, and the GI50 (CCRF-CEM leukemia) was 21 µM, the TGI (CCRF-CEM leukemia) was > 100 µM and the GI50 (SW-620 colon) was 34.7 µM. The TGI (SW-620 colon) was > 100 µM, the GI50 (HL-60(TB) leukemia) was 30.9 µM and the TGI (HL-60(TB) leukemia) was > 100 µM. The GI50 (EKVX NSCLC) was 79.3 µM, the TGI (EKVX NSCLC) was > 100 µM and the GI50 (A549 NSCLC) was > 100 µM. For the same compound, the TGI (A549 NSCLC) was > 100 µM, the GI50 (T-47D breast) was 21.8 µM and the TGI (T-47D breast) was 48.9 µM. It also gave a GI50 (LOX IMVI melanoma) of 18.5 µM, a TGI (LOX IMVI melanoma) of 38.4 µM and a GI50 (NCI-H23 lung) of 25.7 µM. For the same compound, the TGI (NCI-H23 lung) was 69.5 µM, the GI50 (A498 renal) was 27.9 µM and the TGI (A498 renal) was 68.6 µM. The GI50 (NCI-H460 lung) was 52.1 µM, the TGI (NCI-H460 lung) was > 100 µM and the GI50 (TK-10 renal) was 30.7 µM. The TGI (TK-10 renal) was 74.7 µM, the GI50 (SK-MEL-5 melanoma) was 15.9 µM and the TGI (SK-MEL-5 melanoma) was 32.7 µM. The GI50 (DU-145 prostate) was 57.6 µM, the TGI (DU-145 prostate) was > 100 µM and the GI50 (SN12C renal) was 36.2 µM. For the same compound, the TGI (SN12C renal) was > 100 µM, the GI50 (SF-539 CNS) was 52.9 µM and the TGI (SF-539 CNS) was > 100 µM. The GI50 (MCF7 breast) was 48.2 µM, the TGI (MCF7 breast) was > 100 µM and the GI50 (NCI-H226 lung) was 18.2 µM. The TGI (NCI-H226 lung) was 46.9 µM, the GI50 (M14 melanoma) was 23.2 µM and the TGI (M14 melanoma) was 55.3 µM. For the same compound, the GI50 (MOLT-4 leukemia) was 24.6 µM, the TGI (MOLT-4 leukemia) was > 100 µM and the GI50 (SK-OV-3 ovarian) was > 100 µM. For the same compound, the TGI (SK-OV-3 ovarian) was > 100 µM, the GI50 (SK-MEL-2 melanoma) was 48 µM and the TGI (SK-MEL-2 melanoma) was > 100 µM. For the same compound, the GI50 (UACC-257 melanoma) was 94.9 µM, the TGI (UACC-257 melanoma) was > 100 µM and the GI50 (MDA-MB-435) was 35.6 µM. For the same compound, the TGI (MDA-MB-435) was > 100 µM, the GI50 (KM12 colon) was 95.1 µM and the TGI (KM12 colon) was > 100 µM. It also gave a GI50 (MDA-MB-231 breast) of 23.4 µM, a TGI (MDA-MB-231 breast) of 63.9 µM and a GI50 (UO-31 renal) of 31.7 µM. For the same compound, the TGI (UO-31 renal) was > 100 µM, the GI50 (ACHN renal) was 21.6 µM and the TGI (ACHN renal) was 53.7 µM. The GI50 (IGROV1 ovarian) was 43.9 µM, the TGI (IGROV1 ovarian) was > 100 µM and the GI50 (NCI-H522 lung) was 34.6 µM. It also gave a TGI (NCI-H522 lung) of 91.3 µM, a GI50 (HCT-15 colon) of 20.5 µM and a TGI (HCT-15 colon) of 50.1 µM. The GI50 (MALME-3M melanoma) was 48.2 µM, the TGI (MALME-3M melanoma) was > 100 µM and the GI50 (OVCAR-5 ovarian) was 70.5 µM. The TGI (OVCAR-5 ovarian) was > 100 µM, the GI50 (HOP-92 NSCLC) was 49.3 µM and the TGI (HOP-92 NSCLC) was > 100 µM. For the same compound, the GI50 (PC-3 prostate) was 47.1 µM, the TGI (PC-3 prostate) was > 100 µM and the GI50 (RXF 393 renal) was 35.5 µM. For the same compound, the TGI (RXF 393 renal) was > 100 µM, the GI50 (OVCAR-3 ovarian) was 19.3 µM and the TGI (OVCAR-3 ovarian) was 39.5 µM. For the same compound, the GI50 (HOP-62 NSCLC) was 60.9 µM, the TGI (HOP-62 NSCLC) was > 100 µM and the GI50 (SNB-19 CNS) was 71.5 µM. The TGI (SNB-19 CNS) was > 100 µM, the GI50 (HCT-116 colon) was 24.7 µM and the TGI (HCT-116 colon) was 53.7 µM. For the same compound, the GI50 (CAKI-1 renal) was 26.2 µM, the TGI (CAKI-1 renal) was 74.7 µM and the GI50 (RPMI-8226 leukemia) was 23.3 µM. The TGI (RPMI-8226 leukemia) was > 100 µM, the GI50 (SF-295 CNS) was 42.8 µM and the TGI (SF-295 CNS) was > 100 µM. For the same compound, the GI50 (U251 CNS) was 60.9 µM, the TGI (U251 CNS) was > 100 µM and the GI50 (OVCAR-8 ovarian) was 41.8 µM. For the same compound, the TGI (OVCAR-8 ovarian) was > 100 µM, the GI50 (786-0 renal) was 30.7 µM and the TGI (786-0 renal) was 76.1 µM. For the same compound, the GI50 (SF-268 CNS) was 48 µM, the TGI (SF-268 CNS) was > 100 µM and the GI50 (NCI/ADR-RES ovarian) was 34.2 µM. The TGI (NCI/ADR-RES ovarian) was > 100 µM, the GI50 (COLO 205 colon) was 18.9 µM and the TGI (COLO 205 colon) was 51.9 µM. For the same compound, the GI50 (HS 578T breast) was 65 µM, the TGI (HS 578T breast) was > 100 µM and the GI50 (UACC-62 melanoma) was 18.5 µM. For the same compound, the TGI (UACC-62 melanoma) was 43.2 µM, the GI50 (BT-549 breast) was 32 µM and the TGI (BT-549 breast) was 84.5 µM.
